Measured values: ChEMBL document CHEMBL5465560, “Selectivity Literature for EUbOPEN Chemogenomic Library” (2024)

How the values were obtained:
[1] = target: Ribosomal protein S6 kinase alpha-1 (Homo sapiens, UniProt Q15418); experiment: Selectivity interaction (KinomeScan (DiscoverX)) EUB0001079a RPS6KA1; conditions: at 1 µM
[2] = target: Mitogen-activated protein kinase 10 (Homo sapiens, UniProt P53779); experiment: Selectivity interaction (Kinase panel (Invitrogen)) EUB0000639a MAPK10; conditions: at 200 nM
Chain of Mitogen-activated protein kinase 10 (P53779 whole entry): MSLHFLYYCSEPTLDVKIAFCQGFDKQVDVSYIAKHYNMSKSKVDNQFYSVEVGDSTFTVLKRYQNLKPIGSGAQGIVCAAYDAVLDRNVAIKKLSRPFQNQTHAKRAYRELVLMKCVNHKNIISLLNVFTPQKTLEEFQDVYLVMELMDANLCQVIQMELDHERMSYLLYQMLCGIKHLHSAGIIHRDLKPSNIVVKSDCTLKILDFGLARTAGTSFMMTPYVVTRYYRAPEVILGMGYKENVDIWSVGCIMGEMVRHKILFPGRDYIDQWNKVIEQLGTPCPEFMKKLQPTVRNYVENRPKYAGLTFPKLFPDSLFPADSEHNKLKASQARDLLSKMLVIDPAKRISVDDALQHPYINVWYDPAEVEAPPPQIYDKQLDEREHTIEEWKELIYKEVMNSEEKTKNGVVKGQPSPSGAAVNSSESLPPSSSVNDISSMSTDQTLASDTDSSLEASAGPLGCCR

[3] = target: T1, Serine/threonine-protein kinase TAO3 (Homo sapiens) (UniProt Q9H2K8); experiment: Selectivity interaction (KinomeScan (DiscoverX)) EUB0000595a TAOK3; conditions: at 10 µM
T1 sequence (whole entry): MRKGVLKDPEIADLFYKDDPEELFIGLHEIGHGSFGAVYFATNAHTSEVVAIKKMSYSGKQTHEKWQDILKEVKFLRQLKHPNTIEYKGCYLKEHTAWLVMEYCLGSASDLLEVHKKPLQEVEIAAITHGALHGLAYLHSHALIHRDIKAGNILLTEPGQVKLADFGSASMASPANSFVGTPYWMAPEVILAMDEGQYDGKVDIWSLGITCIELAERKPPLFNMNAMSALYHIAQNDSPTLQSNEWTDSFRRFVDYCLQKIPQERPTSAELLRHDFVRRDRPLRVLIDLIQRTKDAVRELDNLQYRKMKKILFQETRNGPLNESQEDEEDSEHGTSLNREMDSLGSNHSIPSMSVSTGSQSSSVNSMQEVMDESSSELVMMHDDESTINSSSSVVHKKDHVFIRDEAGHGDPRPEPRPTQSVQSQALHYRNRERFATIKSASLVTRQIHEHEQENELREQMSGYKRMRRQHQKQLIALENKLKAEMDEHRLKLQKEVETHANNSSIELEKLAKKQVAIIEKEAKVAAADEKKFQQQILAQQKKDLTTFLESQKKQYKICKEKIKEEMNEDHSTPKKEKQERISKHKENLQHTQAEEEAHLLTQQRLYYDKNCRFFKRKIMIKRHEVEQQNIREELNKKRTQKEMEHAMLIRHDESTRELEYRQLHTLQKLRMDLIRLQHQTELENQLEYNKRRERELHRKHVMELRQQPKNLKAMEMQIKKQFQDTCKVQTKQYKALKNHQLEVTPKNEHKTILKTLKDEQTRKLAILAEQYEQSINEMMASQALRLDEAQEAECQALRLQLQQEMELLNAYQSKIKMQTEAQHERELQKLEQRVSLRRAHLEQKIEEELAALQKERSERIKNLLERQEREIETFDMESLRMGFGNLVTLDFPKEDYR

[4] = target: Mitogen-activated protein kinase kinase kinase 11 (Homo sapiens) (UniProt Q16584); experiment: Selectivity interaction (KinomeScan (DiscoverX)) EUB0000595a MAP3K11; conditions: at 10 µM
Chain of Mitogen-activated protein kinase kinase kinase 11 (Homo sapiens) (Q16584 whole entry, looked up): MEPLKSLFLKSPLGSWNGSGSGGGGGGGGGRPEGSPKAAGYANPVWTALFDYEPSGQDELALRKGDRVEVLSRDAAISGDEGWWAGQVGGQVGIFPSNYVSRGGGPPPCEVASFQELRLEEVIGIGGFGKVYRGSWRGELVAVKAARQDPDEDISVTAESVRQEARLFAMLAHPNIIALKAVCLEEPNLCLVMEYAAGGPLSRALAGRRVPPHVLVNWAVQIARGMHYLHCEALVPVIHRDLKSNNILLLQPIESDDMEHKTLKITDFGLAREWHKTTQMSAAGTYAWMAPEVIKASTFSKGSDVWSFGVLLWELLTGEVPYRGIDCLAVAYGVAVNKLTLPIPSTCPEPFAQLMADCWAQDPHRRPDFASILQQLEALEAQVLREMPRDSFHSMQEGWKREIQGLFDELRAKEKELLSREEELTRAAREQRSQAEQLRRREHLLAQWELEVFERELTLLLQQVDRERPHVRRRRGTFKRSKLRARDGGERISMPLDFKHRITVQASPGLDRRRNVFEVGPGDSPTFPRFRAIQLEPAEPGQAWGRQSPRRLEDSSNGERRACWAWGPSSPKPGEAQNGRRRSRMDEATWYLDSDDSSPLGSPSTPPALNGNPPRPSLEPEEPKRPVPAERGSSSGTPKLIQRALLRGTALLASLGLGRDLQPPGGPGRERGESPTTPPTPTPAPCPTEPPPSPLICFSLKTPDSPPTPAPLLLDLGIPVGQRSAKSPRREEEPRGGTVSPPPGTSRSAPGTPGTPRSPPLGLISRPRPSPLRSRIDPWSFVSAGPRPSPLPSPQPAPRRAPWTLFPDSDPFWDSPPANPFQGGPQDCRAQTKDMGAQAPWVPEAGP

[5] = target: T2, Serine/threonine-protein kinase STK11 (Homo sapiens) (UniProt Q15831); experiment: Selectivity interaction (KinomeScan (DiscoverX)) EUB0000092b STK11; conditions: at 10 µM
T2 sequence (whole entry): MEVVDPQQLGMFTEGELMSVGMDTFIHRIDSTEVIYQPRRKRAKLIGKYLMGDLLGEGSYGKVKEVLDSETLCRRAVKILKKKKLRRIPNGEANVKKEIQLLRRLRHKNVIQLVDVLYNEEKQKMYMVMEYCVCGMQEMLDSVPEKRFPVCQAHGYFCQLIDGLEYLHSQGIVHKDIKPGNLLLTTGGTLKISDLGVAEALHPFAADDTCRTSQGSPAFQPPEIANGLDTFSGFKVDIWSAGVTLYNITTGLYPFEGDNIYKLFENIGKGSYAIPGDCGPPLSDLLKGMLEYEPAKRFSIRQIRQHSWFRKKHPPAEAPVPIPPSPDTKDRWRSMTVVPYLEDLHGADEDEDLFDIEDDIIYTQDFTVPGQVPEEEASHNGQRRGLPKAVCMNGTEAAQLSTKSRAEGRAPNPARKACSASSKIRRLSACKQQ

[6] = target: T3, Uncharacterized serine/threonine-protein kinase SBK3 (Homo sapiens) (UniProt P0C264); experiment: Selectivity interaction (KinomeScan (DiscoverX)) EUB0000618a SBK3; conditions: at 10 µM
T3 sequence (whole entry): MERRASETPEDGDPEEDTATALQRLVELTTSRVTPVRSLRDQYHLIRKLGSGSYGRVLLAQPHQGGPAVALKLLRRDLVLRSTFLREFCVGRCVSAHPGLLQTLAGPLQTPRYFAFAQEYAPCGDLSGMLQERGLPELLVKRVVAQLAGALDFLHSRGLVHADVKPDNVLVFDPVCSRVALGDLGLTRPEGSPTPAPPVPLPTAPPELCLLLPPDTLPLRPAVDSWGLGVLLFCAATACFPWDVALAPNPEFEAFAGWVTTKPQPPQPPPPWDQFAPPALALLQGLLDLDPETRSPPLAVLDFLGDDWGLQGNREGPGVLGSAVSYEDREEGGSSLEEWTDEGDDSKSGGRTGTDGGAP

[7] = target: T4, Inhibitor of nuclear factor kappa-B kinase subunit alpha (Homo sapiens) (UniProt O15111); experiment: Selectivity interaction (KinomeScan (DiscoverX)) EUB0001619a CHUK; conditions: at 1 µM
T4 sequence (whole entry): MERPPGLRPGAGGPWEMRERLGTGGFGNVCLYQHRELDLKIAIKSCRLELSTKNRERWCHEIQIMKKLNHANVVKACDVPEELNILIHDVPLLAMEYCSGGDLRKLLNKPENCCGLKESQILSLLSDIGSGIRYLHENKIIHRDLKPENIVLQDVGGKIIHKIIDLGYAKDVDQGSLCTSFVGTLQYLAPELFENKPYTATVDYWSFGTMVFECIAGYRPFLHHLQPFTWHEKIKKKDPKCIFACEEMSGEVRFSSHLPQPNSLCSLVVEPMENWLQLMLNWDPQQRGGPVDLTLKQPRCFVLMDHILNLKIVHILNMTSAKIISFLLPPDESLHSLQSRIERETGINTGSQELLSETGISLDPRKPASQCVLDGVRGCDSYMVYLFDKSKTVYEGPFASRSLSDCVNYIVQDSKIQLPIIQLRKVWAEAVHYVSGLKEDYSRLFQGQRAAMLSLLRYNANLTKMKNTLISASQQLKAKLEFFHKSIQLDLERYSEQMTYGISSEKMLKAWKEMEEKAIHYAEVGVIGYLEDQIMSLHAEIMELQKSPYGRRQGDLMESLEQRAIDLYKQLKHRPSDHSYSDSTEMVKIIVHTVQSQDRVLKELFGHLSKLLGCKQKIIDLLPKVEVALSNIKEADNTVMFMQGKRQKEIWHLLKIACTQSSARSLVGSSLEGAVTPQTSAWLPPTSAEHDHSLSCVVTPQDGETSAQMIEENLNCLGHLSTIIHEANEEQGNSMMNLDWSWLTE

[8] = target: Activin receptor type-1-like (Homo sapiens) (UniProt P37023); experiment: Selectivity interaction (KinomeScan (DiscoverX)) EUB0000655a ACVRL1; conditions: at 10 µM
Chain of Activin receptor type-1-like (Homo sapiens) (P37023 whole entry): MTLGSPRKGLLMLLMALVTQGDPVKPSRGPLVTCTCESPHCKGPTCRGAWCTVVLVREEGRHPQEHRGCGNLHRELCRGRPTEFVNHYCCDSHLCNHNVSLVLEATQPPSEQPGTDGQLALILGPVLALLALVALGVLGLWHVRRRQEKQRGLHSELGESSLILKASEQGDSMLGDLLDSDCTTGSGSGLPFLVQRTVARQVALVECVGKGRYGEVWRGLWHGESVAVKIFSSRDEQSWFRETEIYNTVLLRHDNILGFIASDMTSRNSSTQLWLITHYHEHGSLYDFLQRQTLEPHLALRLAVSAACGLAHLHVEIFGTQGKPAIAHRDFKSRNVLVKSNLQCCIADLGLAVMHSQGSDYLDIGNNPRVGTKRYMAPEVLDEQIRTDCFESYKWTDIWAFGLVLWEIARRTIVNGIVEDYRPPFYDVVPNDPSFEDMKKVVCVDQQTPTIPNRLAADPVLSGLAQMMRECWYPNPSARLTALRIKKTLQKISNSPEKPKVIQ

Chain of Ribosomal protein S6 kinase alpha-1 (Q15418 whole entry): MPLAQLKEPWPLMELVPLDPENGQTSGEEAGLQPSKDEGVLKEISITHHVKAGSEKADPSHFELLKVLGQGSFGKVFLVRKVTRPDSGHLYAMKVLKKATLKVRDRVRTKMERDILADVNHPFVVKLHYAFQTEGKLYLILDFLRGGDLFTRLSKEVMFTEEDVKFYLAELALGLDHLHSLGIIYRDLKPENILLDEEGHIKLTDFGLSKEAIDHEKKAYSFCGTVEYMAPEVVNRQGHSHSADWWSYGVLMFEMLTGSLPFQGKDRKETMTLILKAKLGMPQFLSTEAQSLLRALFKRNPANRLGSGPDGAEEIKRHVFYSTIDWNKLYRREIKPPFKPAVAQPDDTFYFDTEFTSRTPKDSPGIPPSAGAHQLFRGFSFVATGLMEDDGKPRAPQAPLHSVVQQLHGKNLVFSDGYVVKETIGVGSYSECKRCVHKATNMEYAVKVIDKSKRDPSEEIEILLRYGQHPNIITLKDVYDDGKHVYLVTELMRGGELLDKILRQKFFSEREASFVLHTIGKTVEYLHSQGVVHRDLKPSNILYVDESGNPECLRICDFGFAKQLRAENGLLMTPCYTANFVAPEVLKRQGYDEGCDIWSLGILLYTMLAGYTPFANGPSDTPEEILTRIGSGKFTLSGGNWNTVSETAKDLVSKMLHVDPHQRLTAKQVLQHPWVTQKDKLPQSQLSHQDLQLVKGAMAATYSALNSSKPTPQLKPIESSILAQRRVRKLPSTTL

Nc1cnc(N2CCc3cc(S(=O)(=O)Nc4c(F)cc(Cl)cc4F)cc(N4CCCC4=O)c32)nc1 [TP-020n]
% of control [1]: 100%

CC[C@@H]1[C@H](F)C(=O)N[C@@H]1COc1nccc2cc(C(N)=O)c(OC)cc12 [ZIMLOVISERTIB]
% of inhibition [2]: 4.92%

COCC(=O)NC/C=C/c1ccc2ncnc(Nc3ccc(Oc4ccc(C)nc4)c(C)c3)c2c1 [CP-724714]
% of control [3]: 100%
% of control [4]: 92%

CCC(=O)N1CCN(c2ccc(-n3c(=O)ccc4cnc5ccc(-c6cnc7ccccc7c6)cc5c43)cc2C(F)(F)F)CC1
% of control [5]: 100%

O[C@H]1CC[C@H](Nc2ncc3nc(Nc4c(F)cc(F)cc4F)n([C@H]4CCOC4)c3n2)CC1
% of control [6]: 100%

N#Cc1cccc(-c2c[nH]c3ncnc(N4CCOCC4)c23)c1
% of control [7]: 71%

CN(C)CCOc1ccc(-c2nc(-c3ccncc3)c(-c3ccc4c(c3)CC/C4=N\O)[nH]2)cc1
% of control [8]: 67%
